Numbers after ± are expanded uncertainties. Blank lines part the entries; values can stand above or below the molecule they belong to.
Conditions: Liquid, Closed cell (Static) method

vapor or sublimation pressure (307.86 K): 91.7 ± 1.3 kPa
vapor or sublimation pressure (312.58 K): 107.7 ± 1.3 kPa
vapor or sublimation pressure (312.59 K): 106.2 ± 1.3 kPa
vapor or sublimation pressure (312.6 K): 107.4 ± 1.3 kPa
vapor or sublimation pressure (317.32 K): 126 ± 1.3 kPa
vapor or sublimation pressure (317.35 K): 126 ± 1.3 kPa
SMILES: CSC [2-thiapropane]

vapor or sublimation pressure (317.29 K): 413.8 ± 2.2 kPa
SMILES: C/C=C/C [(E)-2-butene]

vapor or sublimation pressure (312.59 K): 332.2 ± 1.9 kPa
SMILES: C/C=C\C [(Z)-2-butene]

vapor or sublimation pressure (317.47 K): 425.7 ± 2.1 kPa
SMILES: CCCC [butane]

Further lines, the molecule ahead of its results:

SMILES: C=CCC [1-butene]
vapor or sublimation pressure (312.57 K): 454.5 ± 2.3 kPa

SMILES: CC(C)C [2-methylpropane]
vapor or sublimation pressure (307.86 K): 459.8 ± 2.3 kPa

SMILES: C=C(C)C [2-methylpropene]
vapor or sublimation pressure (312.6 K): 465.3 ± 2.3 kPa

— the NIST ThermoML archive (doi:10.1016/j.fluid.2008.01.030)
